Data on 15 compounds can be found in patent US12297194B2, “N2-phenylpyrimidine-2,4-diamine compounds, and preparation methods and methods of use thereof” (BRIDGE BIOTHERAPEUTICS, INC., priority 2021, dated 2025).

Assay type in all cases: cell-based, murine
The target of assay [1] is Ba/F3 EGFR L858R/C797S mutants (Homo sapiens, UniProt P00533, C797S/L858R, cells depend on it). The experiment in a line: CellTiter-Glo cell viability, Ba/F3 EGFR L858R/C797S cells. Conditions: 72 hours, read-out: Ba/F3 EGFR mutant cell (IC50, nM) L/C. Summed up: (§1)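 Ba/F3 cells expressing wild-type or mutant EGFR were seeded at 2500 cells/well, treated after 24 hours with compound at 0–2000 nM (ten points), and incubated 72 hours at 37° C. Viability was read as cellular ATP by CellTiter-Glo luminescence, and IC50 values were fitted from the dose-response.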
On the technique in general: ATP-based viability assays read luminescence as a measure of living cells.

The target of assay [2] is Ba/F3 EGFR Del19/C797S mutants (Homo sapiens, UniProt P00533, C797S, cells depend on it, form not given). The experiment in a line: CellTiter-Glo cell viability, Ba/F3 EGFR Del19/C797S cells. Conditions: 72 hours, read-out: Ba/F3 EGFR mutant cell (IC50, nM) D/C. Put shortly:
as §1

Assay [3] addresses Ba/F3 EGFR Wild-type (Homo sapiens, UniProt P00533). The experiment in a line: CellTiter-Glo cell viability, Ba/F3 EGFR wild-type cells. Conditions: 72 hours, read-out: Ba/F3 EGFR mutant cell (IC50, nM) WT. Put shortly:
as §1

Assay [4] deals with Ba/F3 EGFR Del19/T790M mutants (Homo sapiens, UniProt P00533, T790M, cells depend on it, form not given). The experiment in a line: CellTiter-Glo cell viability, Ba/F3 EGFR Del19/T790M cells. Conditions: 72 hours, read-out: Ba/F3 EGFR mutant cell (IC50, nM) D/T. Put shortly: as §1
Sequence of Ba/F3 EGFR Del19/T790M mutants (P00533 with tags, fused parts or gaps DEL746-750/T790M, form open): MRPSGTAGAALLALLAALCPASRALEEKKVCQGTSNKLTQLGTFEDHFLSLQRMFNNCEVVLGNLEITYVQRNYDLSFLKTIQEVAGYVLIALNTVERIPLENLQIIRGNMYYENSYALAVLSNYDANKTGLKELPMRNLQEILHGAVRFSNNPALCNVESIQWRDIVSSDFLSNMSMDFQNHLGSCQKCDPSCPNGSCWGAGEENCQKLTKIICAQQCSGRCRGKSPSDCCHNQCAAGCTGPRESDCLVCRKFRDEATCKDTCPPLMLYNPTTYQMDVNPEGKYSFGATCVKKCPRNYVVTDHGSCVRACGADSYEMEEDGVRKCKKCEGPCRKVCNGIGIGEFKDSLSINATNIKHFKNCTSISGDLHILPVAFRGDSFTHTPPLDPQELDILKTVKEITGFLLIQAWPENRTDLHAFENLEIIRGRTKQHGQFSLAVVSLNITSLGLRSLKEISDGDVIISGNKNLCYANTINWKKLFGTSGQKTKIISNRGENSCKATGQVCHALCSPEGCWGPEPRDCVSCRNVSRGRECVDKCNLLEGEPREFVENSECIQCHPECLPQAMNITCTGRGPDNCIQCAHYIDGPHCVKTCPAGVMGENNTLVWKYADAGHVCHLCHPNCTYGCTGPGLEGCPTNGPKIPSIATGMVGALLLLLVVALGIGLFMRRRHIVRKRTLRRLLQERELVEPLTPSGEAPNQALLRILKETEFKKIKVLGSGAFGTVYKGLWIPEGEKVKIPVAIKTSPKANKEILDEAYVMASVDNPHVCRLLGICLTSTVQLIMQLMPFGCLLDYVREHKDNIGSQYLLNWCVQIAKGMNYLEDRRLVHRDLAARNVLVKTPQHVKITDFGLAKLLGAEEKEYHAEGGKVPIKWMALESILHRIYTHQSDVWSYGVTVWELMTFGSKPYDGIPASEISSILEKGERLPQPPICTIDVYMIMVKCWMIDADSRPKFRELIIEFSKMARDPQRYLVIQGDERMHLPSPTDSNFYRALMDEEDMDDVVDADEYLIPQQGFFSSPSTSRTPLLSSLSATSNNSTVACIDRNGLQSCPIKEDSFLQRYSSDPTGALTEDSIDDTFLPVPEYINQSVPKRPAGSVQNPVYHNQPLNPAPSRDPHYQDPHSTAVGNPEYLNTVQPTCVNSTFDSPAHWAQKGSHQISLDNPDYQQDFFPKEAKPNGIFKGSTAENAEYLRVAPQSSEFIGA
The target in assay [5] is Ba/F3 EGFR Del19/T790M/C797S mutants (Homo sapiens, UniProt P00533, T790M/C797S, cells depend on it, form not given). The experiment in a line: CellTiter-Glo cell viability, Ba/F3 EGFR Del19/T790M/C797S cells. The settings on record: 72 hours, read-out: Ba/F3 EGFR mutant cell (IC50, nM) D/T/C. Summed up: as §1
Sequence of Ba/F3 EGFR Del19/T790M/C797S mutants (P00533 with tags, fused parts or gaps DEL746-750/T790M/C797S, form open): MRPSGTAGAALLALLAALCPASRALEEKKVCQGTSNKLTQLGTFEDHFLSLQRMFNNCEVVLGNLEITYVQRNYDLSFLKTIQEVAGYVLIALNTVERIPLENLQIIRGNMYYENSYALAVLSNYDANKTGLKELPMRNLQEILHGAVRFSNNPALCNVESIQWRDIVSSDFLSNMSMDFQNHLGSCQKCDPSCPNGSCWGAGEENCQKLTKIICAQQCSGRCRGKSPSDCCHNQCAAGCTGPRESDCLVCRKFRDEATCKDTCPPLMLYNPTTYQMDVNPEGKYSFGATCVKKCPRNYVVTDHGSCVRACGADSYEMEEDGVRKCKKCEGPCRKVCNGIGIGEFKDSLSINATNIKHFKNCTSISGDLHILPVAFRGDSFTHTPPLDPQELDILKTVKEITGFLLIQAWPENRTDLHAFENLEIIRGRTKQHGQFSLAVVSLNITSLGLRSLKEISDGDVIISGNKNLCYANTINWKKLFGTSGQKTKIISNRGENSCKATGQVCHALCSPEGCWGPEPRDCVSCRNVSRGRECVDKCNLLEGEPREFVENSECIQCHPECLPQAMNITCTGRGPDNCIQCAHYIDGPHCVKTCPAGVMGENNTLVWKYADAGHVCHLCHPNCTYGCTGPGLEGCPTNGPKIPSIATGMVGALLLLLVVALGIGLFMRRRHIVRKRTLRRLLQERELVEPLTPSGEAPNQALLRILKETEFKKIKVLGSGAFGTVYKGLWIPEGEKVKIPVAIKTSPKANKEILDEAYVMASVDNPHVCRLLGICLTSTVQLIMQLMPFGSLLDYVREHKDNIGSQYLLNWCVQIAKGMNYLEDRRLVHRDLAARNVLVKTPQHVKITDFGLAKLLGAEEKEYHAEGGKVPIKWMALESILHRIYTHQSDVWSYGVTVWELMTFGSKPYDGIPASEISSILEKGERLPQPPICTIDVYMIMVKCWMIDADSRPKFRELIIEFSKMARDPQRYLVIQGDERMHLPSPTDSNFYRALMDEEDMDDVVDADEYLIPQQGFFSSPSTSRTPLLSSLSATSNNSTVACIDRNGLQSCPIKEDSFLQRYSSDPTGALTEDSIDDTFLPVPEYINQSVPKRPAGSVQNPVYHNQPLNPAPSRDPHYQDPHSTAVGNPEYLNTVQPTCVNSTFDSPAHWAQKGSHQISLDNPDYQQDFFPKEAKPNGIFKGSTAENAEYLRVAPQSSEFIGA
The target in assay [6] is Ba/F3 EGFR L858R/T790M/C797S mutants (Homo sapiens, UniProt P00533, T790M/C797S/L858R, cells depend on it). The experiment in a line: CellTiter-Glo cell viability, Ba/F3 EGFR L858R/T790M/C797S cells. Conditions: 72 hours, read-out: Ba/F3 EGFR mutant cell (IC50, nM) L/T/C. Put shortly: as §1
Sequence of Ba/F3 EGFR L858R/T790M/C797S mutants (P00533 whole entry T790M/C797S/L858R): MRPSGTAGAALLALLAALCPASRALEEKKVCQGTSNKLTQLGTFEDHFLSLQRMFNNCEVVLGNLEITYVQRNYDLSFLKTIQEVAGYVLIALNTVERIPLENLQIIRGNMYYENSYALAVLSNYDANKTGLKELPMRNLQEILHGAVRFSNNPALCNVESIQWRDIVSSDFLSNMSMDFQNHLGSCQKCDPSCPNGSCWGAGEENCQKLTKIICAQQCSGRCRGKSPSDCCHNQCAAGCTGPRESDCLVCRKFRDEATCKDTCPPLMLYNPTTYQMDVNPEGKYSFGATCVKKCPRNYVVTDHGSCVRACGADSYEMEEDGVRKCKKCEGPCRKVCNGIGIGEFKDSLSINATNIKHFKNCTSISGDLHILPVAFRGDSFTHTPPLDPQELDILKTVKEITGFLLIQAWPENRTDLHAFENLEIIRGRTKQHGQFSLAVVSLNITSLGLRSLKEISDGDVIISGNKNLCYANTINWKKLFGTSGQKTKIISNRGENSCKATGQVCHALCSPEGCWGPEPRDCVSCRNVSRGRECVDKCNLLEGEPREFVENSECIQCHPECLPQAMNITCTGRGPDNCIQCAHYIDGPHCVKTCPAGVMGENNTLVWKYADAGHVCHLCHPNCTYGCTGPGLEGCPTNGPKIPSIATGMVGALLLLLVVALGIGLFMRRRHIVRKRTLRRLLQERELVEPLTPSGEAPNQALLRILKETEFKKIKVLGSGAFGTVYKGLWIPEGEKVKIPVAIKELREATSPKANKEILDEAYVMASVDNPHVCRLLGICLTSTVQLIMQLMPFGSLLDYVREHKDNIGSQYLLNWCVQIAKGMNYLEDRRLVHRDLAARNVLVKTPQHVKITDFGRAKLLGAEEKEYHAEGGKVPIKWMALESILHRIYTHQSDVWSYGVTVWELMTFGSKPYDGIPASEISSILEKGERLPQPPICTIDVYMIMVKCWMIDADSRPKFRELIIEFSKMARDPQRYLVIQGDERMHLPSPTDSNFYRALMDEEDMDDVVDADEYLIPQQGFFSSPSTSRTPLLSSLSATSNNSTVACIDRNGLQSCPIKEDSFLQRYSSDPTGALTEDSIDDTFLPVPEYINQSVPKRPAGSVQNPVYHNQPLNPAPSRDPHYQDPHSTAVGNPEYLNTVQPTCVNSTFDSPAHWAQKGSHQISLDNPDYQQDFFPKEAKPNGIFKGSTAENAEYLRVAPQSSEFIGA

Some results are limits rather than exact numbers.

Sequence of Ba/F3 EGFR Del19/C797S mutants (P00533 with tags, fused parts or gaps DEL746-750/C797S, form open): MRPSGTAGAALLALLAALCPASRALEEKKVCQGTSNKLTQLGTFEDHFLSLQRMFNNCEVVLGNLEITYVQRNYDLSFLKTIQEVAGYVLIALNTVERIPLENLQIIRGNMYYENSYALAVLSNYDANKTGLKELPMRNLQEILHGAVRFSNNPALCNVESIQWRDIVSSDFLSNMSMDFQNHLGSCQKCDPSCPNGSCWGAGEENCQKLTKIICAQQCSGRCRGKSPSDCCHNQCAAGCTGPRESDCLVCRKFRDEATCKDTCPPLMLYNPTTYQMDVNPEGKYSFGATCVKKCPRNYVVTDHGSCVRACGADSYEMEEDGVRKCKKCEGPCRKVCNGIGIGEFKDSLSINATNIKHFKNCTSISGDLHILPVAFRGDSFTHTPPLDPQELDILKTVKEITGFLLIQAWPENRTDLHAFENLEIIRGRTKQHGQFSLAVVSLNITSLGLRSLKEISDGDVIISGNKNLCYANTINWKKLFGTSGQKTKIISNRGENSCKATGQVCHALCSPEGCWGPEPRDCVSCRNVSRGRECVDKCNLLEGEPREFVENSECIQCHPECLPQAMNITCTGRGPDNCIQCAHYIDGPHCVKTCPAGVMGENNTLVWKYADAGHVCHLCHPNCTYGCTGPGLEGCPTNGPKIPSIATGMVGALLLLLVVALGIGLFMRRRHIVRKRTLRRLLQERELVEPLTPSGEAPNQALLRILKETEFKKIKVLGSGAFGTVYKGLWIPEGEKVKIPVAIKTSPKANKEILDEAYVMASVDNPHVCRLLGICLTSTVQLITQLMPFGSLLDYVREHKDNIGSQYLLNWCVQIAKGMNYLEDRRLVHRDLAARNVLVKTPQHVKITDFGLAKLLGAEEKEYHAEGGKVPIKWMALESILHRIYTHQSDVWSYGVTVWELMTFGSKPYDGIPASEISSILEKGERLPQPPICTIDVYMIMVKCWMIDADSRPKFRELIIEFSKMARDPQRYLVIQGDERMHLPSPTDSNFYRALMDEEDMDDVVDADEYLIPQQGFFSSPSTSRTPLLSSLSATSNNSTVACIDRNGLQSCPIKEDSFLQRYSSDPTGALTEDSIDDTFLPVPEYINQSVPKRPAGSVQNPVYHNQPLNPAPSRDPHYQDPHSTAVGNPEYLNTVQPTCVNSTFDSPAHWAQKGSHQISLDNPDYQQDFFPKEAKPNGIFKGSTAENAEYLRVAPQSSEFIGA

For the compound `COc1cc(N2CCC(N3CCCC3)CC2)c(C)cc1Nc1ncc(Cl)c(Nc2cccc(OC)c2NS(C)(=O)=O)n1` [Example C10, N-(2-((5-chloro-2-((2-methoxy-5-methyl-4-(4-(pyrrolidin-1-yl)piperidin-1-yl)phenyl)amino)pyrimidin-4-yl)amino)-6-methoxyphenyl)methanesulfonamide], the GI50 is 61 nM in assay [1]; 9 nM in assay [2]; 404 nM in assay [3]; 6 nM in assay [4]; 9 nM in assay [5]; 45 nM in assay [6].

For the compound `CCc1cc(Nc2ncc(Br)c(Nc3ccc4nccnc4c3NS(C)(=O)=O)n2)c(OC)cc1N1CCC(N2CC3CCC2CN3C)CC1` (stereo not drawn) [Example A46, N-(6-((5-bromo-2-((5-ethyl-2-methoxy-4-(4-(5-methyl-2,5-diazabicyclo[2.2.2]octan-2-yl)piperidin-1-yl)phenyl)amino)pyrimidin-4-yl)amino)quinoxalin-5-yl)methanesulfonamide], the GI50 is 113 nM in assay [1]; 12 nM in assay [2]; 739 nM in assay [3]; 7 nM in assay [4]; 8 nM in assay [5]; 43 nM in assay [6].

Turning to `CCCc1cc(Nc2ncc(Cl)c(Nc3ccc4c(c3NS(C)(=O)=O)OCCO4)n2)c(OC)cc1N1CCC(N(C)C)CC1` [Example C13, N-(6-((5-chloro-2-((4-(4-(dimethylamino)piperidin-1-yl)-2-methoxy-5-propylphenyl)amino)pyrimidin-4-yl)amino)-2,3-dihydrobenzo[b][1,4]dioxin-5-yl)methanesulfonamide], the GI50 in assay [1] was 61 nM; in assay [2] it was 23 nM; in assay [3], 769 nM; in assay [4] it was 20 nM; in assay [5] it was 27 nM; in assay [6], 52 nM.

As for `COC(=O)Nc1c(Nc2nc(Nc3ccc(C4CCNCC4)cc3OC)ncc2Cl)ccc2nccnc12` [Example D4, methyl (6-((5-chloro-2-((2-methoxy-4-(piperidin-4-yl)phenyl)amino)pyrimidin-4-yl)amino)quinoxalin-5-yl)carbamate], the GI50 in assay [1] was 1570 nM; in assay [2] it was 746 nM; in assay [3] it was more than 2000 nM; in assay [4], 694 nM; in assay [5], 870 nM; in assay [6] it was more than 2000 nM.

For the compound `COc1cc(N2CCC(N3CCOCC3)CC2)c(C)cc1Nc1ncc(Br)c(Nc2ccc3nccnc3c2NS(C)(=O)=O)n1` [Example A23, N-(6-((5-bromo-2-((2-methoxy-5-methyl-4-(4-morpholinopiperidin-1-yl)phenyl)amino)pyrimidin-4-yl)amino)quinoxalin-5-yl)methanesulfonamide], the GI50 in assay [1] came out at 114 nM; in assay [2], 51 nM; in assay [3] it was 416 nM; in assay [4], 41 nM; in assay [5], 16 nM; in assay [6], 49 nM.

On to `CCc1cc(Nc2ncc(Br)c(Nc3ccc4nccnc4c3N(C)S(C)(=O)=O)n2)c(OC)cc1N1CCC(N2CCOCC2)CC1` [Example A39, N-(6-((5-bromo-2-((5-ethyl-2-methoxy-4-(4-morpholinopiperidin-1-yl)phenyl)amino)pyrimidin-4-yl)amino)quinoxalin-5-yl)-N-methylmethanesulfonamide], for which the GI50 in assay [1] was found to be 61 nM; in assay [2] it was 8 nM; in assay [3], 779 nM; in assay [4] it was 4 nM; in assay [5] it was 8 nM; in assay [6], 35 nM.

As to `COc1cc(N2CCC(N(C)C)CC2)c(C)cc1Nc1ncc(Br)c(Nc2cccc(OC)c2NS(C)(=O)=O)n1` [Example C3, N-(2-((5-bromo-2-((4-(4-(dimethylamino)piperidin-1-yl)-2-methoxy-5-methylphenyl)amino)pyrimidin-4-yl)amino)-6-methoxyphenyl)methanesulfonamide], the GI50 is 113 nM in assay [1]; 60 nM in assay [2]; 288 nM in assay [3]; 17 nM in assay [4]; 92 nM in assay [5]; 23 nM in assay [6].

`COc1cc(N2CCC(N3CCCC3)CC2)c(C)cc1Nc1ncc(Cl)c(Nc2ccc3nccnc3c2NS(C)(=O)=O)n1` [Example A30, N-(6-((5-chloro-2-((2-methoxy-5-methyl-4-(4-(pyrrolidin-1-yl)piperidin-1-yl)phenyl)amino)pyrimidin-4-yl)amino)quinoxalin-5-yl)methanesulfonamide]: the GI50 was found to be 83 nM in assay [1]; 28 nM in assay [2]; 266 nM in assay [3]; 31 nM in assay [4]; 100 nM in assay [5]; 23 nM in assay [6].

Turning to `COc1cc(C2CCNCC2)ccc1Nc1ncc(C2CC2)c(Nc2ccc3nccnc3c2NS(C)(=O)=O)n1` [Example B20, N-(6-((5-cyclopropyl-2-((2-methoxy-4-(piperidin-4-yl)phenyl)amino)pyrimidin-4-yl)amino)quinoxalin-5-yl)methanesulfonamide], the GI50 in assay [1] is 1140 nM; in assay [2], 697 nM; in assay [3], more than 2000 nM; in assay [4], 1810 nM; in assay [5], 758 nM; in assay [6], 1850 nM.

As to `CCc1cc(Nc2ncc(Br)c(Nc3ccc4nccnc4c3N(C)S(C)(=O)=O)n2)c(OC)cc1N1CCC(N2CCCCC2)CC1` [Example A44, N-(6-((2-((4-([1,4′-bipiperidin]-1′-yl)-5-ethyl-2-methoxyphenyl)amino)-5-bromopyrimidin-4-yl)amino)quinoxalin-5-yl)-N-methylmethanesulfonamide], the GI50 in assay [1] is 94 nM; in assay [2], 6 nM; in assay [3] it was more than 2000 nM; in assay [4] it was 12 nM; in assay [5], 10 nM; in assay [6], 38 nM.

In the case of `COc1cc(OC2CNC2)ccc1Nc1ncc(Cl)c(Nc2ccc3nccnc3c2NS(C)(=O)=O)n1` [Example D6, N-(6-((2-((4-(azetidin-3-yloxy)-2-methoxyphenyl)amino)-5-chloropyrimidin-4-yl)amino)quinoxalin-5-yl)methanesulfonamide], the GI50 in assay [1] is 1130 nM; in assay [2], 706 nM; in assay [3], more than 2000 nM; in assay [4], 800 nM; in assay [5], 592 nM; in assay [6], 1080 nM.

`CCc1cc(Nc2ncc(Cl)c(Nc3ccc(OC)cc3NS(C)(=O)=O)n2)c(OC)cc1N1CCC(N2CCOCC2)CC1` [Example C14, N-(2-((5-chloro-2-((5-ethyl-2-methoxy-4-(4-morpholinopiperidin-1-yl)phenyl)amino)pyrimidin-4-yl)amino)-5-methoxyphenyl) methanesulfonamide]: the GI50 worked out at 22 nM in assay [1]; 4 nM in assay [2]; 415 nM in assay [3]; 2 nM in assay [4]; 4 nM in assay [5]; 21 nM in assay [6].

As to `CCCc1cc(Nc2ncc(Cl)c(Nc3cccc(OC)c3N(C)S(C)(=O)=O)n2)c(OC)cc1N1CCC(N(C)C)CC1` [Example C31, N-(2-((5-chloro-2-((4-(4-(dimethylamino)piperidin-1-yl)-2-methoxy-5-propylphenyl)amino)pyrimidin-4-yl)amino)-6-methoxyphenyl)-N-methylmethanesulfonamide], the GI50 in assay [1] was 89 nM; in assay [2], 10 nM; in assay [3], 698 nM; in assay [4] it was 22 nM; in assay [5] it was 20 nM; in assay [6], 68 nM.

Regarding `CCc1cc(Nc2ncc(Br)c(Nc3cccc(OC)c3N(C)S(C)(=O)=O)n2)c(OC)cc1N1CCC(N2CCN(C)CC2)CC1` [Example C7, N-(2-((5-bromo-2-((5-ethyl-2-methoxy-4-(4-(4-methylpiperazin-1-yl)piperidin-1-yl)phenyl)amino)pyrimidin-4-yl)amino)-6-methoxyphenyl)-N-methylmethane sulfonamide], the GI50 in assay [1] is 52 nM; in assay [2] it was 10 nM; in assay [3], 534 nM; in assay [4], 6 nM; in assay [5], 10 nM; in assay [6], 24 nM.

Take `CCc1cc(Nc2ncc(Cl)c(Nc3ccc4nccnc4c3NS(C)(=O)=O)n2)c(OC)cc1N1CC2CCC1CN2C(C)C` (stereo not drawn) [Example B25, N-(6-((5-chloro-2-((5-ethyl-4-(5-isopropyl-2,5-diazabicyclo[2.2.2]octan-2-yl)-2-methoxyphenyl)amino)pyrimidin-4-yl)amino) 105 quinoxaline-5-yl)methanesulfonamide]: the GI50 is 93 nM in assay [1]; 16 nM in assay [2]; 829 nM in assay [3]; 26 nM in assay [4]; 22 nM in assay [5]; 83 nM in assay [6].
